Measurements from PubChem BioAssay (NCI).
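Tested at 5 concentrations; 48 h exposure; 96-well plates; endpoints linearly interpolated, else capped at highest concentration. TGI: total growth inhibition.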

Columns and labels:
Test in all cases: DTP human tumour cell line panel, 48 h
BT-549 breast = test system: BT-549 breast
HCT-15 colon = test system: HCT-15 colon
SK-OV-3 ovarian = test system: SK-OV-3 ovarian
ACHN renal = test system: ACHN renal
SK-MEL-5 melanoma = test system: SK-MEL-5 melanoma
COLO 205 colon = test system: COLO 205 colon
NCI-H460 lung = test system: NCI-H460 lung
A498 renal = test system: A498 renal
CCRF-CEM leukemia = test system: CCRF-CEM leukemia
SF-295 CNS = test system: SF-295 CNS
TK-10 renal = test system: TK-10 renal
IGROV1 ovarian = test system: IGROV1 ovarian
OVCAR-4 ovarian = test system: OVCAR-4 ovarian
HCT-116 colon = test system: HCT-116 colon
LOX IMVI melanoma = test system: LOX IMVI melanoma
T-47D breast = test system: T-47D breast
M14 melanoma = test system: M14 melanoma
SK-MEL-2 melanoma = test system: SK-MEL-2 melanoma
HCC-2998 colon = test system: HCC-2998 colon
UACC-257 melanoma = test system: UACC-257 melanoma
HT29 colon = test system: HT29 colon
NCI-H226 lung = test system: NCI-H226 lung
HL-60(TB) leukemia = test system: HL-60(TB) leukemia
SR leukemia = test system: SR leukemia
SN12C renal = test system: SN12C renal
786-0 renal = test system: 786-0 renal
MDA-MB-231 breast = test system: MDA-MB-231 breast
RPMI-8226 leukemia = test system: RPMI-8226 leukemia
MDA-MB-435 = test system: MDA-MB-435
HOP-92 NSCLC = test system: HOP-92 NSCLC
KM12 colon = test system: KM12 colon
OVCAR-5 ovarian = test system: OVCAR-5 ovarian
CAKI-1 renal = test system: CAKI-1 renal
OVCAR-8 ovarian = test system: OVCAR-8 ovarian
HOP-62 NSCLC = test system: HOP-62 NSCLC
A549 NSCLC = test system: A549 NSCLC
MDA-N = test system: MDA-N
SF-268 CNS = test system: SF-268 CNS
NCI-H23 lung = test system: NCI-H23 lung
MALME-3M melanoma = test system: MALME-3M melanoma
OVCAR-3 ovarian = test system: OVCAR-3 ovarian
RXF 393 renal = test system: RXF 393 renal
U251 CNS = test system: U251 CNS
UO-31 renal = test system: UO-31 renal
MOLT-4 leukemia = test system: MOLT-4 leukemia
SNB-75 CNS = test system: SNB-75 CNS
UACC-62 melanoma = test system: UACC-62 melanoma
SK-MEL-28 melanoma = test system: SK-MEL-28 melanoma
DU-145 prostate = test system: DU-145 prostate
HS 578T breast = test system: HS 578T breast
NCI-H522 lung = test system: NCI-H522 lung
SF-539 CNS = test system: SF-539 CNS
SNB-19 CNS = test system: SNB-19 CNS
SW-620 colon = test system: SW-620 colon
K-562 leukemia = test system: K-562 leukemia
EKVX NSCLC = test system: EKVX NSCLC
PC-3 prostate = test system: PC-3 prostate
MCF7 breast = test system: MCF7 breast

**Q.** How did the TGI (BT-549 breast) turn out when `C=C1C(O)C23CCC4C(C(=O)O)(C(=O)O)CC(OC5OC(CO)C(O)C(OC(=O)CCc6ccccc6)C5NC(=O)CC(C)C)CC4(C)C2CCC1(O)C3` (stereo not drawn) was run?
**A.** > 100 µM

**Q.** And the TGI (HCT-15 colon)?
**A.** > 100 µM

**Q.** What about the TGI (SK-OV-3 ovarian) of the same molecule?
**A.** > 100 µM

**Q.** What about the TGI (ACHN renal) of the same molecule?
**A.** > 100 µM

**Q.** What about the TGI (SK-MEL-5 melanoma) of the same molecule?
**A.** > 100 µM

**Q.** What about the TGI (COLO 205 colon) of the same molecule?
**A.** > 100 µM

**Q.** And the TGI (NCI-H460 lung)?
**A.** > 100 µM

**Q.** What about the TGI (A498 renal) of the same molecule?
**A.** > 100 µM

**Q.** What about the TGI (CCRF-CEM leukemia) of the same molecule?
**A.** > 100 µM

**Q.** And the TGI (SF-295 CNS)?
**A.** > 100 µM

**Q.** What about the TGI (TK-10 renal) of the same molecule?
**A.** > 100 µM

**Q.** And the TGI (IGROV1 ovarian)?
**A.** > 100 µM

**Q.** What about the TGI (OVCAR-4 ovarian) of the same molecule?
**A.** > 100 µM

**Q.** And the TGI (HCT-116 colon)?
**A.** > 100 µM

**Q.** What about the TGI (LOX IMVI melanoma) of the same molecule?
**A.** > 100 µM

**Q.** What about the TGI (T-47D breast) of the same molecule?
**A.** > 100 µM

**Q.** And the TGI (M14 melanoma)?
**A.** > 100 µM

**Q.** What about the TGI (SK-MEL-2 melanoma) of the same molecule?
**A.** > 100 µM

**Q.** What about the TGI (HCC-2998 colon) of the same molecule?
**A.** > 100 µM

**Q.** What about the TGI (UACC-257 melanoma) of the same molecule?
**A.** > 100 µM

**Q.** What about the TGI (HT29 colon) of the same molecule?
**A.** > 100 µM

**Q.** What about the TGI (NCI-H226 lung) of the same molecule?
**A.** > 100 µM

**Q.** And the TGI (HL-60(TB) leukemia)?
**A.** > 100 µM

**Q.** And the TGI (SR leukemia)?
**A.** > 100 µM

**Q.** And the TGI (SN12C renal)?
**A.** > 100 µM

**Q.** What about the TGI (786-0 renal) of the same molecule?
**A.** > 100 µM

**Q.** What about the TGI (MDA-MB-231 breast) of the same molecule?
**A.** > 100 µM

**Q.** What about the TGI (RPMI-8226 leukemia) of the same molecule?
**A.** > 100 µM

**Q.** What about the TGI (MDA-MB-435) of the same molecule?
**A.** > 100 µM

**Q.** And the TGI (HOP-92 NSCLC)?
**A.** > 100 µM

**Q.** And the TGI (KM12 colon)?
**A.** > 100 µM

**Q.** What about the TGI (OVCAR-5 ovarian) of the same molecule?
**A.** > 100 µM

**Q.** What about the TGI (CAKI-1 renal) of the same molecule?
**A.** > 100 µM

**Q.** And the TGI (OVCAR-8 ovarian)?
**A.** > 100 µM

**Q.** And the TGI (HOP-62 NSCLC)?
**A.** > 100 µM

**Q.** And the TGI (A549 NSCLC)?
**A.** > 100 µM

**Q.** What about the TGI (MDA-N) of the same molecule?
**A.** > 100 µM

**Q.** And the TGI (SF-268 CNS)?
**A.** > 100 µM

**Q.** And the TGI (NCI-H23 lung)?
**A.** > 100 µM

**Q.** What about the TGI (MALME-3M melanoma) of the same molecule?
**A.** > 100 µM

**Q.** What about the TGI (OVCAR-3 ovarian) of the same molecule?
**A.** > 100 µM

**Q.** What about the TGI (RXF 393 renal) of the same molecule?
**A.** > 100 µM

**Q.** And the TGI (U251 CNS)?
**A.** > 100 µM

**Q.** What about the TGI (UO-31 renal) of the same molecule?
**A.** > 100 µM

**Q.** What about the TGI (MOLT-4 leukemia) of the same molecule?
**A.** > 100 µM

**Q.** And the TGI (SNB-75 CNS)?
**A.** > 100 µM

**Q.** What about the TGI (UACC-62 melanoma) of the same molecule?
**A.** > 100 µM

**Q.** What about the TGI (SK-MEL-28 melanoma) of the same molecule?
**A.** > 100 µM

**Q.** And the TGI (DU-145 prostate)?
**A.** > 100 µM

**Q.** What about the TGI (HS 578T breast) of the same molecule?
**A.** > 100 µM

**Q.** And the TGI (NCI-H522 lung)?
**A.** > 100 µM

**Q.** And the TGI (SF-539 CNS)?
**A.** > 100 µM

**Q.** What about the TGI (SNB-19 CNS) of the same molecule?
**A.** > 100 µM

**Q.** And the TGI (SW-620 colon)?
**A.** > 100 µM

**Q.** What about the TGI (K-562 leukemia) of the same molecule?
**A.** > 100 µM

**Q.** What about the TGI (EKVX NSCLC) of the same molecule?
**A.** > 100 µM

**Q.** What about the TGI (PC-3 prostate) of the same molecule?
**A.** > 100 µM

**Q.** What does the source list for `CCOC(=O)C1(C)CCc2sc(N)c(C#N)c21` (stereo not drawn)?
**A.** TGI (BT-549 breast): > 100 µM; TGI (HCT-15 colon): > 100 µM; TGI (ACHN renal): > 100 µM; TGI (SK-MEL-5 melanoma): > 100 µM; TGI (COLO 205 colon): > 100 µM; TGI (NCI-H460 lung): > 100 µM; TGI (A498 renal): > 100 µM; TGI (CCRF-CEM leukemia): > 100 µM; TGI (TK-10 renal): > 100 µM; TGI (IGROV1 ovarian): > 100 µM; TGI (HCT-116 colon): > 100 µM; TGI (T-47D breast): > 100 µM; TGI (M14 melanoma): > 100 µM; TGI (SK-MEL-2 melanoma): > 100 µM; TGI (HCC-2998 colon): > 100 µM; TGI (UACC-257 melanoma): > 100 µM; TGI (HT29 colon): > 100 µM; TGI (NCI-H226 lung): > 100 µM; TGI (HL-60(TB) leukemia): > 100 µM; TGI (SN12C renal): > 100 µM; TGI (786-0 renal): > 100 µM; TGI (MDA-MB-231 breast): > 100 µM; TGI (RPMI-8226 leukemia): > 100 µM; TGI (HOP-92 NSCLC): > 100 µM; TGI (KM12 colon): > 100 µM; TGI (OVCAR-5 ovarian): > 100 µM; TGI (MCF7 breast): > 100 µM; TGI (OVCAR-8 ovarian): > 100 µM; TGI (HOP-62 NSCLC): > 100 µM; TGI (A549 NSCLC): > 100 µM; TGI (MDA-N): > 100 µM; TGI (NCI-H23 lung): > 100 µM; TGI (MALME-3M melanoma): > 100 µM; TGI (RXF 393 renal): > 100 µM; TGI (U251 CNS): > 100 µM; TGI (UO-31 renal): > 100 µM; TGI (MOLT-4 leukemia): > 100 µM; TGI (SNB-75 CNS): > 100 µM; TGI (UACC-62 melanoma): > 100 µM; TGI (SK-MEL-28 melanoma): > 100 µM; TGI (HS 578T breast): > 100 µM; TGI (SNB-19 CNS): > 100 µM; TGI (SW-620 colon): > 100 µM; TGI (K-562 leukemia): > 100 µM; TGI (EKVX NSCLC): > 100 µM; TGI (PC-3 prostate): > 100 µM

**Q.** What does the source list for `CN1CCN(C(=S)N(C(=O)c2cccs2)C2CCCCC2)CC1`?
**A.** TGI (BT-549 breast): > 100 µM; TGI (HCT-15 colon): > 100 µM; TGI (ACHN renal): > 100 µM; TGI (SK-MEL-5 melanoma): > 100 µM; TGI (COLO 205 colon): > 100 µM; TGI (NCI-H460 lung): > 100 µM; TGI (CCRF-CEM leukemia): > 10 µM; TGI (SF-295 CNS): > 10 µM; TGI (TK-10 renal): > 100 µM; TGI (IGROV1 ovarian): > 100 µM; TGI (OVCAR-4 ovarian): > 100 µM; TGI (LOX IMVI melanoma): > 100 µM; TGI (T-47D breast): > 100 µM; TGI (M14 melanoma): > 100 µM; TGI (SK-MEL-2 melanoma): > 100 µM; TGI (HCC-2998 colon): > 100 µM; TGI (UACC-257 melanoma): > 100 µM; TGI (HT29 colon): > 100 µM; TGI (NCI-H226 lung): > 100 µM; TGI (HL-60(TB) leukemia): 54.2 µM; TGI (SR leukemia): > 100 µM; TGI (SN12C renal): > 100 µM; TGI (786-0 renal): > 100 µM; TGI (MDA-MB-231 breast): > 100 µM; TGI (RPMI-8226 leukemia): > 100 µM; TGI (MDA-MB-435): > 100 µM; TGI (HOP-92 NSCLC): > 100 µM; TGI (KM12 colon): > 100 µM; TGI (OVCAR-5 ovarian): > 100 µM; TGI (MCF7 breast): > 100 µM; TGI (OVCAR-8 ovarian): > 100 µM; TGI (A549 NSCLC): > 100 µM; TGI (MDA-N): > 100 µM; TGI (SF-268 CNS): > 100 µM; TGI (NCI-H23 lung): > 100 µM; TGI (MALME-3M melanoma): > 100 µM; TGI (OVCAR-3 ovarian): > 100 µM; TGI (RXF 393 renal): > 100 µM; TGI (U251 CNS): > 100 µM; TGI (UO-31 renal): > 100 µM; TGI (MOLT-4 leukemia): > 10 µM; TGI (SNB-75 CNS): > 100 µM; TGI (UACC-62 melanoma): > 100 µM; TGI (SK-MEL-28 melanoma): > 100 µM; TGI (DU-145 prostate): > 100 µM; TGI (HS 578T breast): > 100 µM; TGI (NCI-H522 lung): > 100 µM; TGI (SNB-19 CNS): > 100 µM; TGI (SW-620 colon): > 100 µM; TGI (K-562 leukemia): > 100 µM
